Entries after “also recorded” stand apart in the source; their conditions may differ.
B1: LprG: Mtb lipoprotein LprG (SEQ ID NO: 2), recombinant 6×His-tagged acylated form (protein, listed as Mycobacterium smegmatis)
chain: MLGMQTRRRLSAVFASLTLATALIAGCSSGSKQSGAPLPDPTSLVKQSADATKNVKSVHLVLSIQGKISGLPIKTLTGDLTTTPATAAKGNATITLGGSDIDANFVVVDGTLYATLTPNKWSDFGKASDIYDVSVLLNPDNGLGNALANFSNAKAEGRETINGQSTIRISGNVSADAVNKIMPQFNATQPVPSTVWVQETGDHQLVQANLQKSSGNSVQVTLSNWGEQVQVTKPPVSS
modifications: 6xHis tag; acylated
B2: Acylated LprG-V91W: acylated LprG with the V91W mutation of the putative glycolipid binding site (protein, UniProt P9WK45 27-236, looked up, variant V91W)
Lipoarabinomannan carrier …: CSSGSKPSGGPLPDAKPLVEEATAQTKALKSAHMVLTVNGKIPGLSLKTLSGDLTTNPTAATGNWKLTLGGSDIDADFVVFDGILYATLTPNQWSDFGPAADIYDPAQVLNPDTGLANVLANFADAKAEGRDTINGQNTIRISGKVSAQAVNQIAPPFNATQPVPATVWIQETGDHQLAQAQLDRGSGNSVQMTLSKWGEKVQVTKPPVS

Experiments:
[1] = test system: bone marrow-derived macrophages; assay type: cell-based, mice
[2] = target: T1, TLR2 (Homo sapiens, UniProt O60603+Q15399); assay type: cell-based
T1 construct: YFP; expressed in transfected cells

[3] = target: T1, TLR2; assay type: cell-based; remark: listed apart in the source

T1 sequence (O60603 21-784, species assumed): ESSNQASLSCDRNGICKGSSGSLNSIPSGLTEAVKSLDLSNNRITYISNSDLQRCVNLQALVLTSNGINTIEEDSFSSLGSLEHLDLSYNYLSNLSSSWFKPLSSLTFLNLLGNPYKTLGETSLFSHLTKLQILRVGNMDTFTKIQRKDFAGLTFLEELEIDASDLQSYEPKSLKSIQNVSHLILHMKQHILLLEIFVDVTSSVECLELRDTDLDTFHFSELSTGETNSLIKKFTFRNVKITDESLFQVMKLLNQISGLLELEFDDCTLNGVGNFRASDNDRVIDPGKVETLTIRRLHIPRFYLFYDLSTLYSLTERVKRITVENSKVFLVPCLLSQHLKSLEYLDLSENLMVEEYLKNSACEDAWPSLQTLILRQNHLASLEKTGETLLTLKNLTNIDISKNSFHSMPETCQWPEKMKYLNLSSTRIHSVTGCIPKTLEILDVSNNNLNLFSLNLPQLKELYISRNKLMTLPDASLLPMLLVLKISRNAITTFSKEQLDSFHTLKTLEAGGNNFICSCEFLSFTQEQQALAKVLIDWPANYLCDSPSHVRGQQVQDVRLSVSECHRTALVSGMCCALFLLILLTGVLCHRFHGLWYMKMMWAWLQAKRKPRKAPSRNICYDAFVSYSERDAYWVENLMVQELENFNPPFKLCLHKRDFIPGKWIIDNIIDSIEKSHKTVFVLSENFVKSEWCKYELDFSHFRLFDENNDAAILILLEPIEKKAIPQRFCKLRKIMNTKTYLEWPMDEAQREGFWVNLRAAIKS
T1 sequence (Q15399 25-786, species assumed): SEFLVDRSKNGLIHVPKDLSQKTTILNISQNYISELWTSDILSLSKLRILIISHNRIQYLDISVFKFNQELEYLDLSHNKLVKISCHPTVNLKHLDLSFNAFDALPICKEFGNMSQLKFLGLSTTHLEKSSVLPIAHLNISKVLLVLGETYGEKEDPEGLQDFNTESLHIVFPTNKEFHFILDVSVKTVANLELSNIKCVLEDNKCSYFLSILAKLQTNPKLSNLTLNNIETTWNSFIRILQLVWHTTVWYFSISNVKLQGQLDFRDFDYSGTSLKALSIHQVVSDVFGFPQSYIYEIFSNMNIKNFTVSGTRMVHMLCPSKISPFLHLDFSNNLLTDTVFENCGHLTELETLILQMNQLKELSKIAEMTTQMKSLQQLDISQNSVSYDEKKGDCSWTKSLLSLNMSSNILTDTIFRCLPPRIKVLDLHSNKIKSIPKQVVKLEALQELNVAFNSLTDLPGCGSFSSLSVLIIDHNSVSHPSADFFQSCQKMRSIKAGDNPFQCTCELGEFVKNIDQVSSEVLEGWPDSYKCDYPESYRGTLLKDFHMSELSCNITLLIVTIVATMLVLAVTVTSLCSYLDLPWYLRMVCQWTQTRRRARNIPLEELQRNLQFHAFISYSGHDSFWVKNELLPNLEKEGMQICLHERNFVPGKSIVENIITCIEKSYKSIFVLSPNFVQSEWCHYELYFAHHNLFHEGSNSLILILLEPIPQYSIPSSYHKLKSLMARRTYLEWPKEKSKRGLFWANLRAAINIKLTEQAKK

Row | Molecule | TLR dependence of macrophage TNFα response [1] | other results
1 | CpG ODN 1826 | intact in knockout cell lines; also recorded: All macrophage types responded | –
2 | FSL-1 | dependent on TLR2 and TLR6, but not TLR1 | –
3 | B1 | – | TLR2 agonist activity (IL-8 response) [2]: dose-dependent IL-8 response; also recorded: more potent TLR2 agonist than a homologous Mtb lipoprotein, LprA
4 | B2 | – | TLR2 agonist activity of acylated protein [3]: significantly less potent than wild-type acylated LprG
